Data from patent US11607393B2, “Drug delivery method for targeting cancer stem cells” (priority 2017, dated 2023).

What was measured:
[1] = system: MDA-MB-231 human breast cancer cells; assay: MDA-MB-231 cells in 3D non-adherent PEG diacrylate matrix (stem sub-population), cell viability and tumorsphere number; format: cell-based
CD44 = assay: Expression of CSC marker CD44 in MDA-MB-231 cells in 3D non-adherent matrix; format: cell-based, human
Description: (§1) MDA-MB-231 human breast cancer cells were cultured on 2D adherent polystyrene culture plates that enriched the differentiated cell sub-population (CDC) and in 3D polyethylene glycol diacrylate crosslinked non-adherent matrix that enriches the stem sub-population (CSC). FIGS. 4A-4D compare cell content and the expression of CD44, ABCG2, and EGFR markers as a function of time.
(§2) FIG. 6A and FIG. 6B show the expression of CSC markers CD44 and EGFR, respectively, of MDA-MB-231 (MDA) human breast cancer cells grown in a 3D non-adherent matrix, as described in Example 1 above, after exposure to free Paclitaxel (PTX) or PTX conjugated to POSS nanoparticles (PTXconjPOSS) as a function of incubation time.

[2] = system: MDA-MB-231 human breast cancer cells; assay: MDA-MB-231 cells on 2D adherent polystyrene culture plates (differentiated sub-population), cell viability; format: cell-based
Description: as §1
FIGS. 5A-5D show the response of the MDA-MB-231 human breast cancer cells cultured in 2D adherent plates and 3D non-adherent matrix to treatment with Doxorubicin (DOX) cancer drug. For the 2D culture, cell viability decreased exponentially as the drug concentration increased (FIG. 5A) and reached about 5% as the drug concentration was increased to 5 μM.

EGFR = assay: Expression of stem cell marker EGFR in MDA-MB-231 cells in 3D non-adherent matrix; format: cell-based, human; details: as a function of incubation time (FIG. 6B)
Description: as §1, §2

| Compound | number of tumorspheres ([1]; 3D matrix, 0.5 μM DOX concentration (FIG. 5C)) | number of tumorspheres, % of the initial number ([1]; 3D matrix, DOX concentration above 0.5 μM (FIG. 5C)) [%] | cell viability ([1]; 3D matrix, drug concentration 0.5 μM (FIG. 5B)) | effectiveness against cells in 3D non-adherent matrix ([1]; 3D non-adherent matrix, stem cell sub-population dominates (FIGS. 5B-5D)) | viability at 5 µM ([1]; Homo sapiens, MDA-MB-231, 3D matrix, 5 μM DOX concentration (FIG. 5B)) [%] | expression of CSC marker CD44 (CD44; 3D matrix, higher DOX concentrations (FIG. 5D)) | cells removed ([2]; 2D culture (FIG. 5A)) [%] | viability at 5 µM ([2]; Homo sapiens, MDA-MB-231, 2D culture, drug concentration 5 μM (FIG. 5A)) [%] | expression of EGFR (EGFR) | expression of CD44 (CD44; 3D non-adherent matrix, as a function of incubation time (FIG. 6A)) | toxicity to CSCs (CD44; concluded from CD44 and EGFR expression in 3D non-adherent matrix) | effectiveness against the differentiated sub-population of cancer cells ([2]; no data shown) |
| --- | --- | --- | --- | --- | --- | --- | --- | --- | --- | --- | --- | --- |
| COc1cccc2c1C(=O)c1c(O)c3c(c(O)c1C2=O)C[C@@](O)(C(=O)CO)C[C@@H]3O[C@H]1C[C@H](N)[C@H](O)[C@H](C)O1 [DOX, Doxorubicin] | first increased | 85 | first increased | not effective | 35 | dramatically increased | 95 | ~5 | – | – | – | – |
| CC(=O)O[C@H]1C(=O)[C@@]2(C)[C@H]([C@H](OC(=O)c3ccccc3)[C@]3(O)C[C@H](OC(=O)[C@H](O)[C@@H](NC(=O)c4ccccc4)c4ccccc4)C(C)=C1C3(C)C)[C@]1(OC(C)=O)CO[C@@H]1C[C@@H]2O [PTX, Paclitaxel] | – | – | – | – | – | – | – | – | very high expression | very high expression | not toxic to CSCs | effective |
